Measurements: US20100240657A1, “CHEMICAL COMPOUNDS” (BOEHRINGER INGELHEIM INTERNATIONAL GMBH, priority 2007, published 2010)

Legend:
B-Raf (V600E) = B-Raf (V600E) (Homo sapiens, UniProt P15056, V600E); assay: Kinase test B-Raf (V600E); format: biochemical; details: 250 μM ATP, MEK1 substrate; read-out: IC50 value, B-Raf (V600E) inhibition test
Experimental: In a dilution series, 10 μL aliquots of test substance solution are placed in a multiwell plate. The dilution series is selected so as to cover a range of concentrations from 2 μM to 0.128 or 0.017 nM. If necessary the initial concentration is changed from 2 μM to 10 or 0.4 μM and further dilution is carried out accordingly. The final concentration of DMSO is 5%. 10 μL of the B-Raf (V600E) kinase solution are pipetted in (containing 2.5 ng B-Raf (V600E)-kinase in 20 mM TrisHCl pH 7.5, 0.1 mM EDTA, 0.1 mM EGTA, 0.286 mM sodium orthovanadate, 10% glycerol, 1 mg/mL bovine serum albumin, 1 mM dithiothreitol) and incubated for 1 h at RT with agitation. The kinase reaction is started by the addition of 20 μL ATP solution [final concentration: 250 μM ATP, 30 mM Tris-HCl pH 7.5, 0.02% Brij, 0.2 mM sodium-orthovanadate, 10 mM magnesium acetate, phosphatase cocktail (Sigma, #P2850, dilution recommended by the manufacturer), 0.1 mM EGTA] and 10 μL MEK1 solution [containing 50 ng biotinylated MEK1 (prepared from purified MEK1 according to standard procedure, e.g. with reagent EZ-Link Sulfo-NHS-LC-Biotin, Pierce, #21335) in 50 mM Hepes pH 7.5, 150 mM NaCl, 10% glycerol, 0.02% Brij-35, 0.2 mM PMSF, 0.2 mM benzamidine] and carried out for 60 min at RT with constant agitation. The reaction is stopped by the addition of 12 μL of a 100 mM EDTA solution and incubated for a further 5 min. 55 μL of the reaction solution are transferred into a streptavidine-coated plate (e.g. Streptawell HighBond, Roche, #11989685001) and shaken gently for 1 h at RT, in order to bind biotinylated MEK1 to the plate. After removal of the liquid the plate is washed five times with 200 μL of 1×PBS, and 100 μL solution of primary antibody plus europium-labelled secondary antibody [Anti Phospho-MEK (Ser217/221), Cell Signaling #9121 and Eu-N1 labeled goat-anti-rabbit antibody, Perkin Elmer #AD01015], the primary antibody is diluted 1:2000 and the secondary antibody is added to 0.4-0.5 μg/mL diluted in Delfia Assay Buffer (Perkin Elmer, #1244-111). After 1 h agitation at RT the solution is poured away and washed five times with 200 μL Delfia Wash Buffer (Perkin Elmer #4010-00101244-114). After the addition of 200 μL Enhancement Solution (Perkin Elmer #4001-00101244-105) the preparation is shaken for 10 min at RT and then measured in a Wallac Victor using the programme “Delfia Time Resolved Fluorescence (Europium)”.
IC50 values are determined from these dosage-activity curves using the software programme (GraphPadPrizm).

A375 cells = assay: Inhibition of proliferation on cultivated human melanoma cells (A375), AlamarBlue; format: cell-based; details: A-375, A375, method as for SK-MEL28, read-out: EC50 value, cellular A375 assay
Experimental: (§1) To measure proliferation on cultivated human tumour cells, cells of melanoma cell line SK-MEL28 [American Type Culture Collection (ATCC)] are cultivated in MEM medium, supplemented with 10% foetal calf serum, 2% sodium bicarbonate, 1 mM sodium pyruvate, 1% non-essential amino acids (e.g. from Cambrex, #BE13-114E) and 2 mM glutamine. SK-MEL28 cells are placed in 96-well flat-bottomed plates at a density of 2500 cells per well in supplemented MEM medium (see above) and incubated overnight in an incubator (at 37° C. and 5% CO2). The active substances are added to the cells in various concentrations so as to cover a range of concentrations from 50 μM to 3.2 nM. If necessary the initial concentration is changed from 50 μM to 10 μM or 2 μM and further dilution (to 0.6 nM or 0.12 nM) is carried out accordingly. After a further 72 hours incubation, 20 μl AlamarBlue reagent (Serotec Ltd., #BUF012B) is added to each well, and the cells are incubated for a further 3-6 hours. The colour change of the AlamarBlue reagent is determined in a fluorescence spectrophotometer (e.g. Gemini, Molecular Devices). EC50 values are calculated using the software programme (GraphPadPrizm).
To measure proliferation on cultivated human tumour cells, cells of melanoma cell line A375 [American Type Culture Collection (ATCC)] are cultivated in MEM medium, supplemented with 10% foetal calf serum and 2% sodium bicarbonate. Test substances are tested on A375 cells according to the method described for SK-MEL28 cells (see above).

SK-MEL28 cells = assay: Inhibition of proliferation on cultivated human melanoma cells (SK-MEL28), AlamarBlue; format: cell-based; details: SK-MEL-28, SK-MEL28, 72 hours incubation, read-out: EC50 value, cellular SK-MEL28 assay
Experimental: as §1

B-Raf (V600E), sequence (P15056 whole entry V600E): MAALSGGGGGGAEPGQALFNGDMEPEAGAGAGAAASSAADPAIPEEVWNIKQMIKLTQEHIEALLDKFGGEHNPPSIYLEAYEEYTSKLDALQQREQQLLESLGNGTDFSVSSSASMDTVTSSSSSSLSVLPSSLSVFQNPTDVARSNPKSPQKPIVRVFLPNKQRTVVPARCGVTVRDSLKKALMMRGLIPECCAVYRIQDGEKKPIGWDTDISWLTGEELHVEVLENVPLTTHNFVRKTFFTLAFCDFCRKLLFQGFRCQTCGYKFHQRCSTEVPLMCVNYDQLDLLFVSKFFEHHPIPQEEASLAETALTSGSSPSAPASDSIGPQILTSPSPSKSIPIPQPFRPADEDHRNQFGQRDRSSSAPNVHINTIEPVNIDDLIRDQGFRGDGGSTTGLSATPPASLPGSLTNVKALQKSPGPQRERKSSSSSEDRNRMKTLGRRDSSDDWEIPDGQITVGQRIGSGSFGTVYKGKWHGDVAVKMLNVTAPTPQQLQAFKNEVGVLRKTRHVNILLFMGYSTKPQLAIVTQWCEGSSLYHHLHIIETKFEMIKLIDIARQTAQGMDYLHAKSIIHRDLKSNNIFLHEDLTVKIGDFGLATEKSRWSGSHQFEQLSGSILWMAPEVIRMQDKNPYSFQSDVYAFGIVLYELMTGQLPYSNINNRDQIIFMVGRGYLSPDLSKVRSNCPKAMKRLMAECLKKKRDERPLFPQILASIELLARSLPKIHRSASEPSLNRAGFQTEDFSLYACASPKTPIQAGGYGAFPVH

Structure (SMILES)	IC50 (B-Raf (V600E)) [µM]	EC50 (A375 cells) [µM]	EC50 (SK-MEL28 cells) [µM]
Cc1ccc(C(=O)Nc2ccc(Cl)c(C(F)(F)F)c2)cc1-c1noc(-c2cccnc2)n1 [Example 2b]	< 0.5	< 5	
COC(=O)c1cncc(-n2cc(-c3cc(C(=O)Nc4cc(C(C)(C)C)cc(NS(C)(=O)=O)c4OC)ccc3C)nn2)c1 [Example 1a]		< 5	< 5
COc1c(NC(=O)c2ccc(C)c(-c3noc(-c4cccnc4)n3)c2)cc(C(C)(C)C)cc1NS(C)(=O)=O [Example 2a]	< 0.5	< 5	
COc1c(NC(=O)c2ccc(C)c(-c3nc(-c4cccnc4)no3)c2)cc(C(C)(C)C)cc1NS(C)(=O)=O [Example 3a]	< 0.5	< 5	< 5

Now from value to compound:

IC50 (B-Raf (V600E)) [µM]	EC50 (A375 cells) [µM]	EC50 (SK-MEL28 cells) [µM]	Structure (SMILES)
< 0.5			Cc1ccc(C(=O)Nc2ccc(Cl)c(C(F)(F)F)c2)cc1-c1csc(-c2cccnc2)n1 [Example 5b-b]
< 0.5	< 5	< 5	Cc1ccc(C(=O)Nc2cc(C(C)(C)C)n[nH]2)cc1-c1csc(-c2cccnc2)n1 [Example 5b-a]
	< 5	< 5	Cc1ccc(C(=O)Nc2cc(C(C)(C)C)on2)cc1-c1c[nH]c(-c2cccnc2)n1 [Example 6c]
